According to ChEMBL document CHEMBL1142897, “Synthesis, characterization and antimicrobial activity of Fe(II), Zn(II), Cd(II) and Hg(II) complexes with 2,6-bis(benzimidazol-2-yl) pyridine ligand” (2007):

Tests used:
[1] = test system: Listeria monocytogenes; assay: Antibacterial activity against Listeria monocytogenes after 72 hrs by disk diffusion method; assay type: functional
[2] = test system: Mycolicibacterium smegmatis; assay: Antibacterial activity against Mycobacterium smegmatis after 72 hrs by disk diffusion method; assay type: functional
[3] = test system: Klebsiella pneumoniae; assay: Antibacterial activity against Klebsiella pneumoniae after 72 hrs by disk diffusion method; assay type: functional
[4] = test system: Escherichia coli; assay: Antibacterial activity against Escherichia coli after 72 hrs by disk diffusion method; assay type: functional
[5] = test system: Staphylococcus aureus; assay: Antibacterial activity against Staphylococcus aureus after 72 hrs by disk diffusion method; assay type: functional
[6] = test system: Bacillus cereus; assay: Antibacterial activity against Bacillus cereus after 72 hrs by disk diffusion method; assay type: functional
[7] = test system: Proteus vulgaris; assay: Antibacterial activity against Proteus vulgaris after 72 hrs by disk diffusion method; assay type: functional
[8] = test system: Micrococcus luteus; assay: Antibacterial activity against Micrococcus luteus after 72 hrs by disk diffusion method; assay type: functional
[9] = test system: Pseudomonas aeruginosa; assay: Antibacterial activity against Pseudomonas aeruginosa after 72 hrs by disk diffusion method; assay type: functional
[10] = test system: Kluyveromyces marxianus; assay: Antifungal activity against Kluyveromyces fragilis after 24 hrs by disk diffusion method; assay type: functional
[11] = test system: Rhodotorula mucilaginosa; assay: Antifungal activity against Rhodotorula rubra after 24 hrs by disk diffusion method; assay type: functional
[12] = test system: Hanseniaspora guilliermondii; assay: Antifungal activity against Hanseniaspora guilliermondii after 24 hrs by disk diffusion method; assay type: functional
[13] = test system: Candida albicans; assay: Antifungal activity against Candida albicans after 24 hrs by disk diffusion method; assay type: functional
[14] = test system: Debaryomyces hansenii; assay: Antifungal activity against Debaryomyces hansenii after 24 hrs by disk diffusion method; assay type: functional
[15] = test system: Listeria monocytogenes; assay: Antibacterial activity against Listeria monocytogenes after 24 hrs by dilution method; assay type: functional, organism-based
[16] = test system: Klebsiella pneumoniae; assay: Antibacterial activity against Klebsiella pneumoniae after 24 hrs by dilution method; assay type: functional, organism-based
[17] = test system: Bacillus cereus; assay: Antibacterial activity against Bacillus cereus after 24 hrs by dilution method; assay type: functional, organism-based
[18] = test system: Escherichia coli; assay: Antibacterial activity against Escherichia coli after 24 hrs by dilution method; assay type: functional, organism-based
[19] = test system: Micrococcus luteus; assay: Antibacterial activity against Micrococcus luteus after 24 hrs by dilution method; assay type: functional, organism-based
[20] = test system: Mycolicibacterium smegmatis; assay: Antibacterial activity against Mycobacterium smegmatis after 24 hrs by dilution method; assay type: functional, organism-based
[21] = test system: Pseudomonas aeruginosa; assay: Antibacterial activity against Pseudomonas aeruginosa after 24 hrs by dilution method; assay type: functional, organism-based
[22] = test system: Staphylococcus aureus; assay: Antibacterial activity against Staphylococcus aureus after 24 hrs by dilution method; assay type: functional, organism-based
[23] = test system: Proteus vulgaris; assay: Antibacterial activity against Proteus vulgaris after 24 hrs by dilution method; assay type: functional, organism-based
[24] = test system: Kluyveromyces marxianus; assay: Antifungal activity against Kluyveromyces fragilis after 24 hrs by dilution method; assay type: functional, organism-based
[25] = test system: Candida albicans; assay: Antifungal activity against Candida albicans after 24 hrs by dilution method; assay type: functional, organism-based
[26] = test system: Debaryomyces hansenii; assay: Antifungal activity against Debaryomyces hansenii after 24 hrs by dilution method; assay type: functional, organism-based
[27] = test system: Hanseniaspora guilliermondii; assay: Antifungal activity against Hanseniaspora guilliermondii after 24 hrs by dilution method; assay type: functional, organism-based
[28] = test system: Rhodotorula mucilaginosa; assay: Antifungal activity against Rhodotorula rubra after 24 hrs by dilution method; assay type: functional, organism-based

Molecule	inhibition zone (IZ) [1] [mm]	inhibition zone (IZ) [2] [mm]	inhibition zone (IZ) [3] [mm]	inhibition zone (IZ) [4] [mm]	inhibition zone (IZ) [5] [mm]	inhibition zone (IZ) [6] [mm]	inhibition zone (IZ) [7] [mm]	inhibition zone (IZ) [8] [mm]	inhibition zone (IZ) [9] [mm]	inhibition zone (IZ) [10] [mm]	inhibition zone (IZ) [11] [mm]	inhibition zone (IZ) [12] [mm]	inhibition zone (IZ) [14] [mm]	further results
CC1(C)S[C@@H]2[C@H](NC(=O)[C@H](N)c3ccccc3)C(=O)N2[C@H]1C(=O)O [AMPICILLIN]	12	21	14	12	16	12	16	32	10					
CO/N=C(\C(=O)N[C@@H]1C(=O)N2C(C(=O)O)=C(COC(C)=O)CS[C@H]12)c1csc(N)n1 [CEFOTAXIME]	16	11	13	10	12	14	18	32	54					
Clc1ccccc1C(c1ccccc1)(c1ccccc1)n1ccnc1 [CLOTRIMAZOLE]										18	16	22	18	inhibition zone (IZ) [13]: 15 mm
CC(=O)N1CCN(c2ccc(OCC3COC(Cn4ccnc4)(c4ccc(Cl)cc4Cl)O3)cc2)CC1 (configuration not stated) [KETOCONAZOLE]										16	22	24	14	inhibition zone (IZ) [13]: 21 mm
CC1COc2c(N3CCN(C)CC3)c(F)cc3c(=O)c(C(=O)O)cn1c23 (configuration not stated) [OFLOXACIN]	30	32	28	30	24	30	28	28	44					
CC1(C)S[C@@H]2[C@H](NC(=O)Cc3ccccc3)C(=O)N2[C@H]1C(=O)O [PENICILLIN G]	10	15	18	18	13	14	10	36	8					
CN(C)[C@@H]1C(O)=C(C(N)=O)C(=O)[C@@]2(O)C(O)=C3C(=O)c4c(O)cccc4[C@@](C)(O)[C@H]3C[C@@H]12 [TETRACYCLINE]	28	24	30	28	26	25	26	22	34					
CN[C@H](CC(C)C)C(=O)N[C@H]1C(=O)N[C@@H](CC(N)=O)C(=O)N[C@H]2C(=O)N[C@H]3C(=O)N[C@H](C(=O)N[C@H](C(=O)O)c4cc(O)cc(O)c4-c4cc3ccc4O)[C@H](O)c3ccc(c(Cl)c3)Oc3cc2cc(c3O[C@@H]2O[C@H](CO)[C@@H](O)[C@H](O)[C@H]2O[C@H]2C[C@](C)(N)[C@H](O)[C@H](C)O2)Oc2ccc(cc2Cl)[C@H]1O [VANCOMYCIN]	26	20	22	22	13	18	20	34	10					
GENTAMICIN														MIC [15]: 12.5 µg/mL; MIC [16]: 6.25 µg/mL; MIC [17]: 6.25 µg/mL; MIC [18]: 6.25 µg/mL; MIC [19]: 25 µg/mL; MIC [20]: 12.5 µg/mL; MIC [21]: 6.25 µg/mL; MIC [22]: 25 µg/mL; MIC [23]: 6.25 µg/mL
NYSTATIN										18	18	21	16	MIC [24]: 6.25 µg/mL; MIC [25]: 3.12 µg/mL; MIC [26]: 12.5 µg/mL; MIC [27]: 3.12 µg/mL; MIC [28]: 6.25 µg/mL
